According to patent US9737545B2 (MERCK SHARP & DOHME CORP., priority 2013, dated 2017):

What follows are compounds tested against T1, wildtype HIV-1 protease (Human immunodeficiency virus type 1 group M subtype B, UniProt P04585) (assay: Assay for Inhibition of Microbial Expressed HIV Protease (Pepcleav)). Settings: not given.
T1 construct: preincubated with the HIV-1 protease (wild type) enzyme in assay buffer; made in house; host or cells: Escherichia coli
Type: biochemical
Outline: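 E. coli-expressed wildtype protease (20 pM final) preincubated with inhibitor 30 min at room temperature in 50 mM sodium acetate pH 5.5, 100 mM NaCl, 0.1% BSA. Reaction with 400 μM peptide substrate ran 1 h at 30° C. Inhibition derived from LC-MS/MS (MRM) product peak area.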

Q: Which IC50 does the source give for `Cc1cc2nc([C@@H]3CO[C@H](CCc4c(F)cncc4NC(=O)C[C@H](c4ccccc4)c4ccc(F)cc4)CN3)[nH]c2cc1C` [Example 69, (3R)—N-(4-{2-[(2R,5R)-5-(5,6-dimethyl-1H-benzimidazol-2-yl)morpholin-2-yl]ethyl}-5-fluoropyridin-3-yl)-3-(4-fluorophenyl)-3-phenylpropanamide] here?
A: The IC50 was 0.01 nM.

Q: For `COC(=O)N[C@H](C(=O)Nc1cncc(F)c1CC[C@@H]1CN[C@H](c2nc3cc(C)c(C)cc3[nH]2)CO1)C(c1ccc(F)cc1)c1ccc(F)cc1` [Example 95, N-(4-{2-[(2R,5R)-5-(5,6-dimethyl-1H-benzimidazol-2-yl)morpholin-2-yl]ethyl}-5-fluoropyridin-3-yl)-4-fluoro-β-(4-fluorophenyl)-Nalpha-(methoxycarbonyl)-L-phenylalaninamide], which IC50 is on record?
A: Its IC50 is 0.03 nM.

Q: How did the IC50 turn out when `COC(=O)N[C@H](C(=O)Nc1ccccc1CC[C@@H]1CN[C@H](c2ncc[nH]2)CO1)C(c1ccccc1)c1ccccc1` [Example 42] was run?
A: Its IC50 is 2.62 nM.

Q: Which IC50 does the source give for `COC(=O)N[C@H](C(=O)Nc1ccccc1CC[C@@H]1CN[C@H](C#N)CO1)C(c1ccccc1)c1ccccc1` [Example 37, methyl [(1S)-2-[(2-{2-[(2R,5R)-5-cyanomorpholin-2-yl]ethyl}phenyl)amino]-1-(diphenylmethyl)-2-oxoethyl]carbamate] here?
A: The IC50 was 246 nM.

Q: With `COC(=O)N[C@H](C(=O)Nc1ccccc1CC[C@@H]1CN[C@H](c2cc3cc(OC)ccc3[nH]2)CO1)C(c1ccccc1)c1ccccc1` [Example 56, Nα-(methoxycarbonyl)-N-(2-{2-[(2R,5R)-5-(5-methoxy-1H-indol-2-yl)morpholin-2-yl]ethyl}phenyl)-β-phenyl-L-phenylalaninamide] as the compound, how does the IC50 read?
A: Its IC50 is 98.3 nM.

Q: Which IC50 does the source give for `O=C(CC(c1ccccc1)c1ccccc1)Nc1cccc(F)c1CC[C@@H]1CN[C@H](c2nc3ccccc3[nH]2)CO1` [Example 100, N-(2-{2-[(2R,5R)-5-(1H-benzimidazol-2-yl)morpholin-2-yl]ethyl}-3-fluorophenyl)-3,3-diphenylpropanamide] here?
A: The IC50 was 0.65 nM.

Q: For `COC(=O)N[C@H](C(=O)Nc1ccccc1CC[C@@H]1CN[C@H](c2nc3c(Br)cc(C)cc3[nH]2)CO1)C(c1ccccc1)c1ccccc1` [Example 19, methyl N-[(1S)-1-benzhydryl-2-[[2-[2-[(2R,5R)-5-(4-bromo-6-methyl-1H-benzimidazol-2-yl)morpholin-2-yl]ethyl]phenyl]amino]-2-oxo-ethyl]carbamate], which IC50 is on record?
A: Its IC50 is 0.573 nM.

Q: Which IC50 does the source give for `Cc1cc2nc([C@@H]3CO[C@H](CCc4c(F)cncc4NC(=O)C4(Cc5ccccc5Cl)CC4)CN3)[nH]c2cc1C` [Example 33] here?
A: Its IC50 is 4.08 nM.

Q: Which IC50 does the source give for `COC(=O)N[C@H](C(=O)Nc1ccccc1CC[C@@H]1CN[C@H](c2csc(C)n2)CO1)C(c1ccccc1)c1ccccc1` [Example 83] here?
A: The IC50 was 89 nM.

Q: With `COC(=O)N[C@H](C(=O)Nc1ccccc1CC[C@@H]1CN[C@H](c2cc3cccc(Cl)c3[nH]2)CO1)C(c1ccccc1)c1ccccc1` [Example 59, N-(2-{2-[(2R,5R)-5-(7-chloro-1H-indol-2-yl)morpholin-2-yl]ethyl}phenyl)-Nα-(methoxycarbonyl)-β-phenyl-L-phenylalaninamide] as the compound, how does the IC50 read?
A: The IC50 was 96.4 nM.

Q: With `COC(=O)N[C@H](C(=O)Nc1ccccc1CC[C@@H]1CN[C@H](c2ncc[nH]2)[C@@H](CSc2nnc(-c3ccncc3)o2)O1)C(c1ccccc1)c1ccccc1` [Example 87, N-(2-{2-[(2R,5R)-(1H-imidazol-2-yl)-6-{[(5-pyridin 4-yl-1,3,4-oxadiazol-2-yl)sulfanyl]methyl}morpholin-2-yl]ethyl}phenyl)-Nalpha-(methoxycarbonyl)-β-phenyl-L-phenylalaninamide] as the compound, how does the IC50 read?
A: The IC50 was 0.6 nM.

Q: For `COC(=O)N[C@H](C(=O)Nc1ccccc1CC[C@@H]1CN[C@H](c2nnc(Cc3ccccc3)o2)CO1)C(c1ccccc1)c1ccccc1` [Example 78], which IC50 is on record?
A: Its IC50 is 62 nM.

Q: `COC(=O)N[C@H](C(=O)Nc1ccccc1CC[C@@H]1CN[C@H](c2cc3cc(Cl)ccc3[nH]2)CO1)C(c1ccccc1)c1ccccc1` [Example 57, N-(2-{2-[(2R,5R)-5-(5-chloro-1H-indol-2-yl)morpholin-2-yl]ethyl}phenyl)-Nα-(methoxycarbonyl)-β-phenyl-L-phenylalaninamide] was tested. Which IC50 did it give?
A: The IC50 was 70.2 nM.

These compounds were tested on HIV-1 (H9IIIB strain) (assay: Antiviral Assays in Cell Culture (Spread), acute infection assay). Settings: Human immunodeficiency virus 1, T-lymphoid, read-out: Viking 50% (nM).
Type: cell-based
From the text: Antiviral Assays in Cell Culture (“Spread”)
Acute Infection Assay (“Spread”) data were generated using HIV-1 (H9IIIB strain) infection of MT-4 human T-lymphoid cells in 10% FBS, and according to the methods disclosed by J. P. Vacca et al, “L-735,524: An orally bioavailable human immunodeficiency virus type 1 protease inhibitor,” Proc. Natl. Acad. Sci. USA, Vol. 91, pp. 4096-4100 (April 1994).

Q: How did the EC50 turn out when `O=C(C[C@@H](c1ccc(F)cc1)c1cc(F)cc(F)c1)Nc1cncc(F)c1CC[C@@H]1CN[C@H](c2nc3ccc(Cl)cc3[nH]2)CO1` [Example 65, (3S)—N-(4-{2-[(2R,5R)-5-(6-chloro-1H-benzimidazol-2-yl)morpholin-2-yl]ethyl}-5-fluoropyridin-3-yl)-3-(3,5-difluorophenyl)-3-(4-fluorophenyl)propanamide] was run?
A: The EC50 was 13 nM.

Q: For `Cc1cc2nc([C@@H]3CO[C@H](CCc4c(F)cncc4NC(=O)C[C@@H](c4ccc(F)cc4)c4cc(F)cc(F)c4)CN3)[nH]c2cc1C` [Example 64, (3S)-3-(3,5-difluorophenyl)-N-(4-{2-[(2R,5R)-5-(5,6-dimethyl-1H-benzimidazol-2-yl)morpholin-2-yl]ethyl}-5-fluoropyridin-3-yl)-3-(4-fluorophenyl)propanamide], which EC50 is on record?
A: The EC50 was 16 nM.

Q: How did the EC50 turn out when `Cc1cc2nc([C@@H]3CO[C@H](CCc4c(F)cncc4NC(=O)C[C@H](c4ccccc4)c4ccc(F)cc4)CN3)[nH]c2cc1C` [Example 69, (3R)—N-(4-{2-[(2R,5R)-5-(5,6-dimethyl-1H-benzimidazol-2-yl)morpholin-2-yl]ethyl}-5-fluoropyridin-3-yl)-3-(4-fluorophenyl)-3-phenylpropanamide] was run?
A: The EC50 was 80 nM.

Q: For `Cc1cc2nc([C@@H]3CO[C@H](CCc4c(F)cncc4NC(=O)C[C@@H](c4ccc(F)cc4)c4ccncc4F)CN3)[nH]c2cc1C` [Example 63, (3S)—N-(4-{2-[(2R,5R)-5-(5,6-dimethyl-1H-benzimidazol-2-yl)morpholin-2-yl]ethyl}-5-fluoropyridin-3-yl)-3-(4-fluorophenyl)-3-(3-fluoropyridin-4-yl)propanamide], which EC50 is on record?
A: The EC50 was 63 nM.

Q: How did the EC50 turn out when `Cc1cc2nc([C@@H]3CO[C@H](CCc4c(F)cncc4NC(=O)C[C@H](c4cccc(F)c4)c4ccc(Cl)c(F)c4)CN3)[nH]c2cc1C` [Example 67, (3R)-3-(4-chloro-3-fluorophenyl)-N-(4-{2-[(2R,5R)-5-(5,6-dimethyl-1H-benzimidazol-2-yl)morpholin-2-yl]ethyl}-5-fluoropyridin-3-yl)-3-(3-fluorophenyl)propanamide] was run?
A: Its EC50 is 23 nM.

Q: Which EC50 does the source give for `Cc1cc2nc([C@@H]3CO[C@H](CCc4c(F)cncc4NC(=O)C[C@H](c4cncc(F)c4)c4ccc(Cl)c(F)c4)CN3)[nH]c2cc1C` [Example 68, (3S)-3-(4-chloro-3-fluorophenyl)-N-(4-{2-[(2R,5R)-5-(5,6-dimethyl-1H-benzimidazol-2-yl)morpholin-2-yl]ethyl}-5-fluoropyridin-3-yl)-3-(5-fluoropyridin-3-yl)propanamide] here?
A: The EC50 was 52 nM.

Q: With `Cc1ccc2nc([C@@H]3CO[C@H](CCc4c(F)cncc4NC(=O)C[C@@H](c4ccc(F)cc4)c4cc(F)cc(F)c4)CN3)[nH]c2c1` [Example 66, (3S)-3-(3,5-difluorophenyl)-N-(5-fluoro-4-{2-[(2R,5R)-5-(6-methyl-1H-benzimidazol-2-yl)morpholin-2-yl]ethyl}pyridin-3-yl)-3-(4-fluorophenyl)propanamide] as the compound, how does the EC50 read?
A: Its EC50 is 22 nM.
